How the values were obtained:
[1] = biological target: T1, Bombyx mori EcR (VP16 fusion, CVBE switch construct) (Bombyx mori, UniProt P49881); assay: Z3 Assay (HEK-293 cells with CVBE and 6XEcRE LacZ, β-galactosidase reporter); conditions: for Fold Induction, Z3 Assay, 3.3 uM: 3.3 uM ligand; for Fold Induction, Z3 Assay, 3.3 uM / Fold Induction, Z3 Assay, 33 uM: ligand treated / DMSO treated cells; for Fold Induction, Z3 Assay, 3.3 uM / Fold Induction, Z3 Assay, 33 uM / EC50: average of two wells; for Fold Induction, Z3 Assay, 33 uM: 33 uM ligand; for EC50: read-out: Z3 assay EC50, β-galactosidase reporter; for EC50 / Z3 assay Rel Max FI: HEK-293 Z3 cells; for Z3 assay Rel Max FI: maximum fold induction at any concentration relative to that of GS-E ligand
T1 sequence (P49881 86-606): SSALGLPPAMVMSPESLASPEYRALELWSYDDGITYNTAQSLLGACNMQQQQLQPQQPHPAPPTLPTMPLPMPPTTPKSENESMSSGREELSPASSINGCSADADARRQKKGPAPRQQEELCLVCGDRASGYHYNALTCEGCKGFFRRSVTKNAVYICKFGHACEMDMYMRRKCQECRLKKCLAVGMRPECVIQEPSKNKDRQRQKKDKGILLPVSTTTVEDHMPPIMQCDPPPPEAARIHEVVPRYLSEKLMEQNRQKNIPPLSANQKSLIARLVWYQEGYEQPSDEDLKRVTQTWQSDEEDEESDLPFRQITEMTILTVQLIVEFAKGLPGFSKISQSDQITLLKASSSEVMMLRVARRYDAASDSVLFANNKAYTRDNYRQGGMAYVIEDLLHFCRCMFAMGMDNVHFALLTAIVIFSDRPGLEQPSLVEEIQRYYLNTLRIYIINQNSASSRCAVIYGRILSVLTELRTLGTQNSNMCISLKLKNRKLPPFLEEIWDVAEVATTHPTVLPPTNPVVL
T1 sequence (P19793 1-462 partner): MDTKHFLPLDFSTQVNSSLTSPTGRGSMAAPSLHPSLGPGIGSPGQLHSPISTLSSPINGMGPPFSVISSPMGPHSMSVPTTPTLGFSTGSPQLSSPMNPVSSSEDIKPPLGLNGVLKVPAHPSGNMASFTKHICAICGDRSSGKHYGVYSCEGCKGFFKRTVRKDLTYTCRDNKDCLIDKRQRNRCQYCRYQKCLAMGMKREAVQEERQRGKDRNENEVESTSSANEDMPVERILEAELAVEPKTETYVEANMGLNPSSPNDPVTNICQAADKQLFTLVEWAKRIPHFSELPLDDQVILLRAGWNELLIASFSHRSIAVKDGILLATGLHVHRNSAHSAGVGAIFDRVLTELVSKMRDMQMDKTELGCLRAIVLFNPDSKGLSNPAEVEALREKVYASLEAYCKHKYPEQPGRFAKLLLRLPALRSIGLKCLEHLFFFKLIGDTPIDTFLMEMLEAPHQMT

[2] = biological target: GAL4 DBD-CfEcR(DEF)/VP16AD-MmRXRE (Choristoneura fumiferana, UniProt O77240); assay: 13B3 Assay (CHO stable cell line, luciferase reporter); conditions: for Fold Induction, 13B3 Assay, 3.3 uM: 3.3 uM ligand; for Fold Induction, 13B3 Assay, 3.3 uM / Fold Induction, 13B3 Assay, 33 uM: RLU ligand treated / RLU DMSO treated cells; for Fold Induction, 13B3 Assay, 3.3 uM / EC50 / Fold Induction, 13B3 Assay, 33 uM: average of two wells; for 13B3 assay Rel Max FI: maximum fold induction at any concentration relative to that of GS-E ligand, CHO 13B3 cells; for EC50: read-out: 13B3 EC50, CHO 13B3 stable cell line, luciferase reporter, 48 h; for Fold Induction, 13B3 Assay, 33 uM: 33 uM ligand
Description: GAL4 DBD-CfEcR(DEF)/VP16AD-MmRXRE:
The wild-type D, E, and F domains from spruce budworm Choristoneura fumiferana EcR (“CfEcR-DEF”; SEQ ID NO: 1) were fused to a GALA DNA binding domain (“Gal4DBD1-147”; SEQ ID NO: 2) and placed under the control of the SV40e promoter of pM vector (PT3119-5, Clontech, Palo Alto, Calif.). The D and E domains from Mus Musculus RXR (“MmRXR-DE”; SEQ ID NO: 11) were fused to the transactivation domain from VP16 (“VP16AD”; SEQ ID NO: 6) and placed under the control of the SV40e promoter of the pVP16 vector (PT3127-5, Clontech, Palo Alto, Calif.).
CHO cells were transiently transfected with transcription cassettes for GAL4 DBD-CJEcR(DEF) and for VP16AD-MmRXRE controlled by SV40e promoters. Stably transfected cells were selected using Hygromycin. Individually isolated CHO cell clones were transiently transfected with a GALA RE-luciferase reporter (pFR-Luc, Stratagene, La Jolla, Calif.). The 13B3 clone was selected using Zeocin.
Cells were trypsinized and diluted to a concentration of 2.5×10^4 cells mL. 100 μL of cell suspension was placed in each well of a 96 well plate and incubated at 37° C. under 5% CO2 for 24 h. Ligand stock solutions were prepared in DMSO and diluted 300 fold for all treatments. Dose response testing consisted of 8 concentrations ranging from 33 μM to 0.01 μM.
Luciferase reporter gene expression was measured 48 h after cell treatment using Bright-Glo™ Luciferase Assay System from Promega (E2650). Luminescence was detected at room temperature using a Dynex MLX microtiter plate luminometer.
Each assay was conducted in two separate wells, and the two values were averaged. Fold inductions were calculated by dividing relative light units (“RLU”) in ligand treated cells with RLU in DMSO treated cells. EC50s were calculated from dose response data using a three-parameter logistic model.

**Q.** With `Cc1cc(C(=O)N(NC(=O)c2cccc(Cl)c2C)C(C)(C)C)ccc1Br` [RG-101664] as the molecule, how does the “Fold Induction, Z3 Assay, 3.3 uM” value [1] read?
**A.** 6

**Q.** What about the “Fold Induction, Z3 Assay, 33 uM” value [1] of the same molecule?
**A.** 1

**Q.** And the EC50 [1]?
**A.** 21100 nM

**Q.** And the “Fold Induction, 13B3 Assay, 3.3 uM” value [2]?
**A.** 1

**Q.** What about the “13B3 assay Rel Max FI” value [2] of the same molecule?
**A.** 0.002

**Q.** What about the EC50 [2] of the same molecule?
**A.** > 50000 nM

**Q.** With `Cc1cc(C)cc(C(=O)N(NC(=O)c2cccc(OC(C)C)c2C)C(C)(C)C)c1` [RG-101670] as the molecule, how does the “Fold Induction, Z3 Assay, 3.3 uM” value [1] read?
**A.** 1190

**Q.** What about the “Fold Induction, Z3 Assay, 33 uM” value [1] of the same molecule?
**A.** 929

**Q.** What about the “Z3 assay Rel Max FI” value [1] of the same molecule?
**A.** 0.853

**Q.** And the EC50 [1]?
**A.** 468 nM

**Q.** And the “Fold Induction, 13B3 Assay, 3.3 uM” value [2]?
**A.** 2297

**Q.** And the “Fold Induction, 13B3 Assay, 33 uM” value [2]?
**A.** 738

**Q.** And the “13B3 assay Rel Max FI” value [2]?
**A.** 0.874

**Q.** And the EC50 [2]?
**A.** 646 nM

**Q.** Which results are given for `Cc1cc(C)cc(C(=O)N(NC(=O)c2cccc(I)c2C)C(C)(C)C)c1` [RG-101734]?
**A.** Fold Induction, Z3 Assay, 3.3 uM [1]: 987; Fold Induction, Z3 Assay, 33 uM [1]: 951; Z3 assay Rel Max FI [1]: 0.988; EC50 [1]: 145 nM; Fold Induction, 13B3 Assay, 3.3 uM [2]: 918; Fold Induction, 13B3 Assay, 33 uM [2]: 442

**Q.** How did the “Fold Induction, Z3 Assay, 3.3 uM” value [1] turn out when `CC(C)(C)N(NC(=O)c1ccc(Br)cc1)C(=O)c1cc(Cl)cc(Cl)c1` [RG-101759] was run?
**A.** 796

**Q.** What about the “Fold Induction, Z3 Assay, 33 uM” value [1] of the same molecule?
**A.** 158

**Q.** And the “Z3 assay Rel Max FI” value [1]?
**A.** 0.639

**Q.** What about the EC50 [1] of the same molecule?
**A.** 331 nM

**Q.** What about the “Fold Induction, 13B3 Assay, 3.3 uM” value [2] of the same molecule?
**A.** 623

**Q.** And the “Fold Induction, 13B3 Assay, 33 uM” value [2]?
**A.** 137

**Q.** What about the “13B3 assay Rel Max FI” value [2] of the same molecule?
**A.** 0.336

**Q.** And the EC50 [2]?
**A.** 877 nM

**Q.** For `CCc1ccc(C(=O)NN(C(=O)c2cc(C)c(Cl)c(C)c2)C(C)(C)C)cc1` [RG-101862], which “Fold Induction, Z3 Assay, 3.3 uM” value [1] is on record?
**A.** 717

**Q.** What about the “Fold Induction, Z3 Assay, 33 uM” value [1] of the same molecule?
**A.** 250

**Q.** What about the “Z3 assay Rel Max FI” value [1] of the same molecule?
**A.** 0.866

**Q.** And the EC50 [1]?
**A.** 269 nM

**Q.** What about the “Fold Induction, 13B3 Assay, 3.3 uM” value [2] of the same molecule?
**A.** 3279

**Q.** What about the “Fold Induction, 13B3 Assay, 33 uM” value [2] of the same molecule?
**A.** 293

**Q.** And the “13B3 assay Rel Max FI” value [2]?
**A.** 0.861

**Q.** What about the EC50 [2] of the same molecule?
**A.** 1050 nM

**Q.** `CCc1ccc(C(=O)NN(C(=O)c2cc(C)cc(C)c2)C(C)(C)C)cc1CC` [RG-101889] was tested. Which “Fold Induction, Z3 Assay, 3.3 uM” value [1] did it give?
**A.** 1085

**Q.** What about the “Fold Induction, Z3 Assay, 33 uM” value [1] of the same molecule?
**A.** 245

**Q.** And the EC50 [1]?
**A.** 3300 nM

**Q.** What about the “Fold Induction, 13B3 Assay, 33 uM” value [2] of the same molecule?
**A.** 378

**Q.** `Cc1cc(C)cc(C(=O)N(NC(=O)c2ccc3c(c2C)CCCO3)C(C)(C)C)c1` [RG-102408] was tested. Which “Fold Induction, Z3 Assay, 3.3 uM” value [1] did it give?
**A.** 249

**Q.** What about the “Z3 assay Rel Max FI” value [1] of the same molecule?
**A.** 1.114

**Q.** What about the EC50 [1] of the same molecule?
**A.** 54 nM

**Q.** What about the “Fold Induction, 13B3 Assay, 3.3 uM” value [2] of the same molecule?
**A.** 25

**Q.** What about the “13B3 assay Rel Max FI” value [2] of the same molecule?
**A.** 0.662

**Q.** What about the EC50 [2] of the same molecule?
**A.** 91 nM

**Q.** Which results are given for `CCC(N(NC(=O)c1cccc(C)c1C)C(=O)c1cccc(C)c1)C(C)(C)C` (centres unmarked) [RG-104074]?
**A.** Fold Induction, Z3 Assay, 3.3 uM [1]: 189; Fold Induction, Z3 Assay, 33 uM [1]: 200; Z3 assay Rel Max FI [1]: 1.122; EC50 [1]: 307 nM; Fold Induction, 13B3 Assay, 3.3 uM [2]: 544; Fold Induction, 13B3 Assay, 33 uM [2]: 5378; 13B3 assay Rel Max FI [2]: 0.812; EC50 [2]: 865 nM

**Q.** How did the fold induction at 33 µM ([1]; HEK293, read-out: Fold Induction, Z3 Assay, 33 uM) turn out when `C=CCOCc1c(OC)cccc1C(=O)NN(C(=O)c1cc(C)cc(C)c1)C(C)(C)C` [RG-115003, 3,5-dimethyl-benzoic acid N′-(2-allyloxymethyl-3-methoxy-benzoyl)-N-tert-butyl-hydrazide] was run?
**A.** 1280

**Q.** And the fold induction at 33 µM ([2]; read-out: Fold Induction, 13B3 Assay, 33 uM)?
**A.** 301

Reference: US9102648B1, “Bioavailable diacylhydrazine ligands for modulating the expression of exogenous genes via an ecdysone receptor complex” (Intrexon Corporation, priority 2003, dated 2015)
